According to patent US20250281424A1 (New York Blood Center, Inc, priority 2020, published 2025):

Legend:
[1] = molecular target: T1, human PF4 (Homo sapiens, UniProt P02776); test: Inhibition of PF4 tetramer formation (BS3 cross-linking, SDS-PAGE); format: biochemical
T1 construct: PF4 is a 70 amino acid, lysine-rich 7.8 kDa platelet-specific protein; made in house; host or cells: Escherichia coli BL21DE3 pLysS (pT7-7) and/or Drosophila S2 cells
T1 sequence (P02776 32-101): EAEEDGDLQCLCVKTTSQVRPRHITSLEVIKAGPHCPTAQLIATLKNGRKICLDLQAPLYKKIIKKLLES
Outline: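 Recombinant human wild-type PF4 (E. coli-expressed, heparin-purified), 10 μg/ml in PBS, incubated with compound 15 min at 37° C or 60 min at room temperature, then cross-linked with 0.2 mM BS3 for 30 min at room temperature. Reducing 12% SDS-PAGE; bands quantified as % tetramer, trimer, dimer, monomer versus compound-free control.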

[2] = molecular target: T2, ultra large complexes (ULC) between PF4 tetramers and heparin (Homo sapiens, UniProt P02776); test: Inhibition of formation of ultra large complexes (ULC) of PF4 tetramers and heparin; format: biochemical; details: IC50 values are +/−20%
T2 construct: platelet factor 4 which is a 70 amino acid, lysine-rich, 7.8 kDa platelet-specific protein
T2 sequence (P02776 32-101): T1 sequence (P02776 32-101)
Experimental: Since ULCs are formed as part of a dynamic equilibrium between heparin and PF4, dynamic light scattering (DLS) was performed to measure the ability of the exemplified compounds to disrupt preformed ULCs. Samples were analyzed and included PF4 incubated in the absence or presence of unfractionated heparin (UFH) for 20 min at room temperature at PF4 to heparin ratios (PHR) of 1:0 (no heparin), 2:1, and 0.64:1. The samples were then analyzed using photon correlation spectroscopy on a DynaPro® DLS instrument and Dynamics® software (V6.7.6; […]) to obtain correlation function. The results of the DLS analysis indicate the percentage of ULCs and small PF4 particles. Data for the small particles (a population of particles with a mean hydrodynamic diameter of about 1 nm) and data for the large particles (a population of particles with a mean hydrodynamic diameter of about 300 nm) is assessed. Data are expressed as the percent of total intensity from each measurement, the mean of 10 measurements, and representative of two such experiments.
ELISA measurement and gel filtration measurement of ULC inhibition were performed as described in International Patent Publication No. WO2013/142328, which is incorporated herein by reference. Similarly, assays in which heparin concentrations are varied to determine the effect on ULC inhibition were performed as described in that publication.
Certain compounds were evaluated for their ability to inhibit formation of ultra large complexes (ULC) between PF4 tetramers and heparin.

[3] = Cytotoxicity HepG2 (MTS reduction); format: cell-based; details: human, HepG2 cells; read-out: Cytotox HepG2 EC50
[4] = Cytotoxicity NIH3T3 (MTS reduction); format: cell-based; details: mouse, NIH3T3 cells, 1 hour exposure in the absence of serum, N = 3, read-out: Cytotox NIH3T3 EC50
[5] = Human microsome stability; format: in vitro ADME; details: Human microsomes, compound conc = 0.5 μM, n = 1; read-out: Human microsome stability Half life t1/2
Text: (§1) Certain exemplified compounds were examined for ADMET (absorption, distribution, metabolism, excretion and toxicity) profiling using conventional assays with the results shown in the Tables 3A-3C below.

[6] = Mouse microsome stability; format: in vitro ADME; details: Mouse microsomes, compound conc = 0.5 μM, n = 1; read-out: Mouse microsome stability Half life t1/2
Text: as §1

[7] = test system: human platelets; test: PF4-KKO induced platelet activation, P-selectin, human platelets; format: cell-based

inhibition at 30 µM ([1]; 30 μM inhibitor, read-out: % inhibition of PF4 tetramer formation at single concentration of inhibitor): 93%
IC50 ([1]; read-out: IC50 of PF4 tetramer formation inhibition): 3 µM
IC50 [2]: 11 µM
half-life at 0.5 μM [5]: 1.94 h
half-life at 0.5 μM [6]: 1.56 h
SMILES: CCCNC(=O)C1C(=O)c2ccc(C(=O)c3ccc4c(c3)C(=O)C(C(=O)NCCC)C4=O)cc2C1=O (stereo not drawn) [Example 15, 5,5′-carbonylbis(1,3-dioxo-indan-2-carboxylic acid propylamide)]
EC50 [3]: > 1000 mg/L
EC50 at 1 h [4]: > 1000 mg/L
PF4-KKO induced platelet activation using P-selectin as a marker ([7]; human platelet activation assays, 20 μM and 40 μM (FIGS. 8 and 9)): inhibitory
preventing PF4-KKO induced platelet activation using P-selectin as a marker ([7]; human platelets (FIG. 12)): efficacy
